Experimental data: the supplement of paper PMC10307832

Columns and labels:
Assay in all cases: relative viability (nuclei count vs DMSO), 5 days (fraction); higher = more cells survive
201T = test system: 201T
Summary of the method: (§1)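 Lung cancer cell lines in 1536-well plates got either a single drug or a fixed anchor-drug dose together with five library-drug doses (not always all listed) in √10 steps, by pin tool, on the day after seeding. Nuclei were counted after 5 days, and relative viability is the treated-to-vehicle ratio of nuclei counts. Values are medians of duplicate plates.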

BEN = test system: BEN
Summary of the method: as §1

CAL-12T = test system: CAL-12T
Summary of the method: as §1

COR-L 105 = test system: COR-L 105
Summary of the method: as §1

COR-L23 = test system: COR-L23
Summary of the method: as §1

EKVX = test system: EKVX
Summary of the method: as §1

HARA = test system: HARA
Summary of the method: as §1

HCC-366 = test system: HCC-366
Summary of the method: as §1

LK-2 = test system: LK-2
Summary of the method: as §1

LU99A = test system: LU99A
Summary of the method: as §1

NCI-H1437 = test system: NCI-H1437
Summary of the method: as §1

NCI-H1650 = test system: NCI-H1650
Summary of the method: as §1

NCI-H1666 = test system: NCI-H1666
Summary of the method: as §1

NCI-H2009 = test system: NCI-H2009
Summary of the method: as §1

NCI-H2170 = test system: NCI-H2170
Summary of the method: as §1

NCI-H3122 = test system: NCI-H3122
Summary of the method: as §1

NCI-H441 = test system: NCI-H441
Summary of the method: as §1

NCI-H661 = test system: NCI-H661
Summary of the method: as §1

NCI-H727 = test system: NCI-H727
Summary of the method: as §1

NCI-H838 = test system: NCI-H838
Summary of the method: as §1

PC-14 = test system: PC-14
Summary of the method: as §1

SW 900 = test system: SW 900
Summary of the method: as §1

## NC(=O)Nc1cc(-c2cccc(F)c2)sc1C(=O)N[C@H]1CCCNC1 [AZD7762] + CC(=O)Nc1cccc(-n2c(=O)n(C3CC3)c(=O)c3c(Nc4ccc(I)cc4F)n(C)c(=O)c(C)c32)c1 [Trametinib] (partner 0.02 µM)
201T; first compound 0.01 µM
  relative viability: 0.718
201T; first compound 0.03162 µM
  relative viability: 0.749
201T; first compound 0.1 µM
  relative viability: 0.763
201T; first compound 0.3162 µM
  relative viability: 0.724
201T; first compound 1 µM
  relative viability: 0.852
BEN; first compound 0.01 µM
  relative viability: 1.15
BEN; first compound 0.03162 µM
  relative viability: 1.11
BEN; first compound 0.1 µM
  relative viability: 1.09
BEN; first compound 0.3162 µM
  relative viability: 1.09
BEN; first compound 1 µM
  relative viability: 0.968
CAL-12T; first compound 0.01 µM
  relative viability: 0.391
CAL-12T; first compound 0.03162 µM
  relative viability: 0.402
CAL-12T; first compound 0.1 µM
  relative viability: 0.377
CAL-12T; first compound 0.3162 µM
  relative viability: 0.325
CAL-12T; first compound 1 µM
  relative viability: 0.217
COR-L 105; first compound 0.01 µM
  relative viability: 0.435
COR-L 105; first compound 0.03162 µM
  relative viability: 0.462
COR-L 105; first compound 0.1 µM
  relative viability: 0.416
COR-L 105; first compound 0.3162 µM
  relative viability: 0.444
COR-L 105; first compound 1 µM
  relative viability: 0.43
COR-L23; first compound 0.01 µM
  relative viability: 0.702
COR-L23; first compound 0.03162 µM
  relative viability: 0.623
COR-L23; first compound 0.1 µM
  relative viability: 0.518
COR-L23; first compound 0.3162 µM
  relative viability: 0.319
COR-L23; first compound 1 µM
  relative viability: 0.119
EKVX; first compound 0.01 µM
  relative viability: 0.345
EKVX; first compound 0.03162 µM
  relative viability: 0.502
EKVX; first compound 0.1 µM
  relative viability: 0.371
EKVX; first compound 0.3162 µM
  relative viability: 0.314
EKVX; first compound 1 µM
  relative viability: 0.279
HARA; first compound 0.01 µM
  relative viability: 0.686
HARA; first compound 0.03162 µM
  relative viability: 0.629
HARA; first compound 0.1 µM
  relative viability: 0.868
HARA; first compound 0.3162 µM
  relative viability: 0.664
HARA; first compound 1 µM
  relative viability: 0.295
HCC-366; first compound 0.01 µM
  relative viability: 0.358
HCC-366; first compound 0.03162 µM
  relative viability: 0.329
HCC-366; first compound 0.1 µM
  relative viability: 0.363
HCC-366; first compound 0.3162 µM
  relative viability: 0.325
HCC-366; first compound 1 µM
  relative viability: 0.13
LK-2; first compound 0.01 µM
  relative viability: 0.794
LK-2; first compound 0.03162 µM
  relative viability: 0.552
LK-2; first compound 0.1 µM
  relative viability: 0.845
LK-2; first compound 0.3162 µM
  relative viability: 0.617
LK-2; first compound 1 µM
  relative viability: 0.562
LU99A; first compound 0.01 µM
  relative viability: 0.595
LU99A; first compound 0.03162 µM
  relative viability: 0.522
LU99A; first compound 0.1 µM
  relative viability: 0.523
LU99A; first compound 0.3162 µM
  relative viability: 0.586
LU99A; first compound 1 µM
  relative viability: 0.43
NCI-H1437; first compound 0.01 µM
  relative viability: 0.561
NCI-H1437; first compound 0.03162 µM
  relative viability: 0.53
NCI-H1437; first compound 0.1 µM
  relative viability: 0.549
NCI-H1437; first compound 0.3162 µM
  relative viability: 0.662
NCI-H1437; first compound 1 µM
  relative viability: 0.494
NCI-H1650; first compound 0.01 µM
  relative viability: 0.65
NCI-H1650; first compound 0.03162 µM
  relative viability: 0.659
NCI-H1650; first compound 0.1 µM
  relative viability: 0.631
NCI-H1650; first compound 0.3162 µM
  relative viability: 0.532
NCI-H1650; first compound 1 µM
  relative viability: 0.209
NCI-H1666; first compound 0.01 µM
  relative viability: 0.894
NCI-H1666; first compound 0.03162 µM
  relative viability: 0.898
NCI-H1666; first compound 0.1 µM
  relative viability: 0.927
NCI-H1666; first compound 0.3162 µM
  relative viability: 0.891
NCI-H1666; first compound 1 µM
  relative viability: 0.901
NCI-H2009; first compound 0.01 µM
  relative viability: 0.279
NCI-H2009; first compound 0.03162 µM
  relative viability: 0.35
NCI-H2009; first compound 0.1 µM
  relative viability: 0.207
NCI-H2009; first compound 0.3162 µM
  relative viability: 0.295
NCI-H2009; first compound 1 µM
  relative viability: 0.236
NCI-H2170; first compound 0.01 µM
  relative viability: 0.935
NCI-H2170; first compound 0.03162 µM
  relative viability: 0.939
NCI-H2170; first compound 0.1 µM
  relative viability: 0.945
NCI-H2170; first compound 0.3162 µM
  relative viability: 0.951
NCI-H2170; first compound 1 µM
  relative viability: 0.914
NCI-H3122; first compound 0.01 µM
  relative viability: 0.22
NCI-H3122; first compound 0.03162 µM
  relative viability: 0.231
NCI-H3122; first compound 0.1 µM
  relative viability: 0.223
NCI-H3122; first compound 0.3162 µM
  relative viability: 0.243
NCI-H3122; first compound 1 µM
  relative viability: 0.27
NCI-H441; first compound 0.01 µM
  relative viability: 0.511
NCI-H441; first compound 0.03162 µM
  relative viability: 0.574
NCI-H441; first compound 0.1 µM
  relative viability: 0.543
NCI-H441; first compound 0.3162 µM
  relative viability: 0.517
NCI-H441; first compound 1 µM
  relative viability: 0.359
NCI-H661; first compound 0.01 µM
  relative viability: 0.662
NCI-H661; first compound 0.03162 µM
  relative viability: 0.569
NCI-H661; first compound 0.1 µM
  relative viability: 0.577
NCI-H661; first compound 0.3162 µM
  relative viability: 0.599
NCI-H661; first compound 1 µM
  relative viability: 0.369
NCI-H727; first compound 0.01 µM
  relative viability: 0.361
NCI-H727; first compound 0.03162 µM
  relative viability: 0.429
NCI-H727; first compound 0.1 µM
  relative viability: 0.358
NCI-H727; first compound 0.3162 µM
  relative viability: 0.366
NCI-H727; first compound 1 µM
  relative viability: 0.299
NCI-H838; first compound 0.01 µM
  relative viability: 0.632
NCI-H838; first compound 0.03162 µM
  relative viability: 0.513
NCI-H838; first compound 0.1 µM
  relative viability: 0.483
NCI-H838; first compound 0.3162 µM
  relative viability: 0.537
NCI-H838; first compound 1 µM
  relative viability: 0.305
PC-14; first compound 0.01 µM
  relative viability: 0.802
PC-14; first compound 0.03162 µM
  relative viability: 0.832
PC-14; first compound 0.1 µM
  relative viability: 0.659
PC-14; first compound 0.3162 µM
  relative viability: 0.236
PC-14; first compound 1 µM
  relative viability: 0.0675
SW 900; first compound 0.01 µM
  relative viability: 0.799
SW 900; first compound 0.03162 µM
  relative viability: 0.794
SW 900; first compound 0.1 µM
  relative viability: 0.721
SW 900; first compound 0.3162 µM
  relative viability: 0.862
SW 900; first compound 1 µM
  relative viability: 0.495
